# Results: patent US20100061994A1, “MEDICAL USES OF 39-DESMETHOXYRAPAMYCIN AND ANALOGUES THEREOF” (priority 2005, published 2010)
# Like-named read-outs stand apart in the source and are kept apart here.
# How the values were obtained:
# 1138L = experiment: Monolayer proliferation assay Protocol 1 (propidium iodide); type: cell-based, human; details: 4 days, mean of duplicate experiments
# Procedure: (§1) In vitro evaluation of compounds for anticancer activity in a panel of 12 human tumour cell lines in a monolayer proliferation assay were carried out at the Oncotest Testing Facility, Institute for Experimental Oncology, Oncotest GmbH, Freiburg.
# (§2) A modified propidium iodide assay was used to assess the effects of the test compound(s) on the growth of twelve human tumor cell lines (Dengler et al, 1995).
# (§3) Briefly, cells were harvested from exponential phase cultures by trypsinization, counted and plated in 96 well flat-bottomed microtitre plates at a cell density dependent on the cell line (5-10.000 viable cells/well). […] Each concentration was plated in triplicate. 39-Desmethoxyrapamycin was applied in two concentrations (0.001 mM and 0.01 mM).
# (§4) Growth inhibition was expressed as treated/control×100 (% TIC). For active compounds, IC50 & IC70 values were estimated by plotting compound concentration versus cell viability.
# (§5) In vitro evaluation of 39-desmethoxyrapamycin for anticancer activity in a panel of 12 human tumour cell lines in a monolayer proliferation assay was carried out as described as Protocol 1 in the general methods above using a modified propidium iodide assay.
# 251L = experiment: as above; type: cell-based, human; details: 4 days, mean of duplicate experiments
# Procedure: as §1, §2, §3, §4, §5
# 394NL = experiment: as above; type: cell-based, human; details: 4 days, mean of duplicate experiments
# Procedure: as §1, §2, §3, §4, §5
# A498 = experiment: as above; type: cell-based, human; details: 4 days, mean of duplicate experiments
# Procedure: as §1, §2, §3, §4, §5
# DU145 = experiment: as above; type: cell-based, human; details: 4 days, mean of duplicate experiments
# Procedure: as §1, §2, §3, §4, §5
# H460 = experiment: as above; type: cell-based, human; details: 4 days, mean of duplicate experiments
# Procedure: as §1, §2, §3, §4, §5
# LNCAP = experiment: as above; type: cell-based, human; details: 4 days, mean of duplicate experiments
# Procedure: as §1, §2, §3, §4, §5
# MCF7 = experiment: as above; type: cell-based, human; details: 4 days, mean of duplicate experiments
# Procedure: as §1, §2, §3, §4, §5
# MDA231 = experiment: as above; type: cell-based, human; details: 4 days, mean of duplicate experiments
# Procedure: as §1, §2, §3, §4, §5
# MDA468 = experiment: as above; type: cell-based, human; details: 4 days, mean of duplicate experiments
# Procedure: as §1, §2, §3, §4, §5
# OVCAR3 = experiment: as above; type: cell-based, human; details: 4 days, mean of duplicate experiments
# Procedure: as §1, §2, §3, §4, §5
# SF268 = experiment: as above; type: cell-based, human; details: 4 days, mean of duplicate experiments
# Procedure: as §1, §2, §3, §4, §5
# [1] = tested on: panel of 12 human tumour cell lines; experiment: Monolayer proliferation assay Protocol 1, mean across the cell lines tested; type: cell-based
# Procedure: as §1, §2, §3, §4, §5
# [2] = Human Liver Microsomal (HLM) stability assay; type: in vitro ADME
# Procedure: Liver homogenates provide a measure of a compounds inherent vulnerability to Phase I (oxidative) enzymes, including CYP450s (e.g. CYP2C8, CYP2D6, CYP1A, CYP3A4, CYP2E1), esterases, amidases and flavin monooxygenases (FMOs).
# The half life (T½) of test compounds was determined, on exposure to Human Liver Microsomes, by monitoring their disappearance over time by LC-MS. Compounds at 0.001 mM were incubated at for 40 min at 37° C., 0.1 M Tris-HCl, pH 7.4 with human microsomal sub-cellular fraction of liver at 0.25 mg/mL protein and saturating levels of NADPH as co-factor. At timed intervals, acetonitrile was added to test samples to precipitate protein and stop metabolism. Samples were centrifuged and analysed for parent compound using analytical Method A (see Materials & Methods).
SMILES,Test/Control (%) at drug concentration (1138L; 1 μM),Test/Control (%) at drug concentration (1138L; 10 μM),Test/Control (%) at drug concentration (251L; 1 μM),Test/Control (%) at drug concentration (251L; 10 μM),Test/Control (%) at drug concentration (394NL; 1 μM),Test/Control (%) at drug concentration (394NL; 10 μM),"Test/Control (%) at drug concentration (A498; A498, 1 μM)","Test/Control (%) at drug concentration (A498; A498, 10 μM)","Test/Control (%) at drug concentration (DU145; DU145, 1 μM)","Test/Control (%) at drug concentration (DU145; DU145, 10 μM)","Test/Control (%) at drug concentration (H460; H460, 1 μM)",Test/Control (%) at drug concentration (LNCAP; 1 μM),Test/Control (%) at drug concentration (LNCAP; 10 μM),"Test/Control (%) at drug concentration (MCF7; MCF7, 1 μM)","Test/Control (%) at drug concentration (MCF7; MCF7, 10 μM)","Test/Control (%) at drug concentration (MDA231; MDA231, 1 μM)","Test/Control (%) at drug concentration (MDA231; MDA231, 10 μM)","Test/Control (%) at drug concentration (MDA468; MDA468, 1 μM)","Test/Control (%) at drug concentration (MDA468; MDA468, 10 μM)","Test/Control (%) at drug concentration (OVCAR3; OVCAR3, 1 μM)",further results
CO[C@H]1C[C@@H]2CC[C@@H](C)[C@@](O)(O2)C(=O)C(=O)N2CCCC[C@H]2C(=O)O[C@H]([C@H](C)C[C@@H]2CC[C@@H](O)[C@H](OC)C2)CC(=O)[C@H](C)/C=C(\C)[C@@H](O)[C@@H](OC)C(=O)[C@H](C)C[C@H](C)/C=C/C=C/C=C/1C [Rapamycin],42%,21.5%,75.5%,40%,45%,44%,58.5%,48.5%,50.5%,54%,67%,61%,34%,68.5%,26.5%,67%,63.5%,56.5%,32%,69%,"Test/Control (%) at drug concentration (OVCAR3; OVCAR3, 10 μM): 69.5%; Test/Control (%) at drug concentration (SF268; SF268, 1 μM): 53.5%; Test/Control (%) at drug concentration (SF268; SF268, 10 μM): 46%; Mean IC70 [1]: 9.1 µM; IC50 ([1]; Homo sapiens): 3.5 µM; half-life at 0.001 mM ([2]; human, liver microsomes, pH 7.4, 0.001 mM, 0.25 mg/mL protein, NADPH, 37° C., read-out: HLM stability: T½ min): 40 min"
COC1CC2CCC(C)C(O)(O2)C(=O)C(=O)N2CCCCC2C(=O)OC(C(C)CC2CCC(O)CC2)CC(=O)C(C)C=C(C)C(O)C(OC)C(=O)C(C)CC(C)C=CC=CC=C1C (stereo not drawn) [39-desmethoxyrapamycin],52%,9.5%,86%,32.5%,48%,40.5%,62.5%,43.5%,65.5%,44.5%,71%,74.5%,28.5%,92.5%,18.5%,68%,37.5%,65%,13.5%,77.5%,"Test/Control (%) at drug concentration (H460; H460, 10 μM): 55.5%; Test/Control (%) at drug concentration (OVCAR3; OVCAR3, 10 μM): 62%; Test/Control (%) at drug concentration (SF268; SF268, 1 μM): 57.5%; Test/Control (%) at drug concentration (SF268; SF268, 10 μM): 23%; IC50 [1]: 3.25 µM; Mean IC70 [1]: 6.95 µM; metabolic stability compared to rapamycin [2]: increased metabolic stability; HLM stability: T½ min ([2]; 0.001 mM, 0.25 mg/mL protein, NADPH, 37° C.): 59 min"
